Reference: US20070224668A1, “Process for producing 4-vinylguaiacol by biodecaroxylation of ferulic acid” (priority 2006, published 2007)

System: wild type B. pumilus
Assay: Activity of resting cell in aqueous organic two-phase system (biotransformation of FA to VG)
Conditions: two-phase bioconversion, B. pumilus whole cells
Description: The cells were resuspended in 1 ml of 0.1 M phosphate buffer to a concentration (OD600=5) and mixed with an equal volume of organic solvent in flasks. Biotransformation was started at an initial FA concentration of 36 mM. The experiments were performed under the same conditions as in the mono-phase biotransformation process (Example 1).

Structure (SMILES): CCO [Ethanol]
- Toxicity of solvent to the cells: toxic to the cells

Structure (SMILES): CCOC(C)=O [Ethyl acetate]
- Toxicity of solvent to the cells: toxic to the cells
